Experimental data from patent US20090269770A1, “METHODS FOR EVALUATION PROGNOSIS AND FOLLOW-UP OF DRUG TREATMENT OF PSYCHIATRIC DISEASES OR DISORDERS” (priority 2008, published 2009).
“And” between values parts separate entries of the source, which are not always exact repeats. Equal values may be shown once.

Experiments:
Format in all cases: in vivo, human
[1] = system: PMC from schizophrenic patients; assay: Real-time RT-PCR of IL8Rα, CCR1, CCR7, RGS7 mRNAs in PMC (6 patients)
Protocol: FIGS. 1A-1D show real-time RT-PCR analysis of CCR1 (1A), CCR7 (1B), IL8Ra (1C) and RGS7 (1D) mRNAs in PMCs from schizophrenic patients treated with an antipsychotic drug combined with the antidepressant agent fluvoxamine. Fluvoxamine (100 mg/day) was added in an open study format to the constant antipsychotic treatment of 6 patients suffering from chronic schizophrenia with persistent negative symptoms. Total RNA, isolated from PMCs of these patients at baseline (day 0, BL) as well as following 3 and 6 weeks (3W and 6W, respectively) of the combined treatment, was reverse transcribed. cDNA was amplified in real-time PCR using suitable primers for CCR1, CCR7, IL8Ra and RGS7, as described in the Experimental section hereinafter. The relative expression level of a given mRNA was assessed by normalizing to the reference gene peptidylprolyl isomerase B (cyclophilin B, PPIB). For each patient, the expression level of each one of the genes at baseline was arbitrarily set as 1, and the gene expression levels at 3 and 6 weeks were calculated relative to baseline. Lines connecting points indicate samples of the same patient. Horizontal lines indicate group means. Student's t-test *p<0.05; **p<0.01 for 3 or 6 weeks of fluvoxamine add-on compared with baseline.
(§1) Two μg of total RNA were denatured and reverse transcribed using random hexanucleotides (0.5 μg/μl) as previously described (Chertkow et al., 2006). Real-time quantitative assessment was performed using LightCycler with FastStart DNA Master SYBR Green I ready-to use PCR mix kits according to the manufacture's protocol (Roche Diagnostics, Mannheim, Germany). Forty ng cDNA was amplified per sample. Each experimental set included one reaction with water as template to control for cross contamination. Amplified products were visualized on 1.5% agarose gel. The sequences of the primers, the experimental conditions and the melting temperature of the products are described in Table 2 hereinafter. The results were analyzed in real-time on the provided program of the LightCycler and normalized against a reference gene in order to correct sample-to-sample variation. […] Expression stability of these genes was determined in our samples with ‘Normfinder’ Excel applet (Andersen et al., 2004); PPIB was chosen as the reference gene for normalization. […]
The biochemical data were analyzed by one way analysis of variance (ANOVA) followed by Dunnett's test. […] Clinical response was assessed with repeated measure ANOVA.
In this study, the significant gene expression changes in the PMC of schizophrenic patients, observed in the customized array and shown in Example 1, were verified by real-time RT-PCR. […] The expression level of each candidate was assessed in all samples.

[2] = system: PMC from schizophrenic patients; assay: Real-time RT-PCR of GABAAβ2 and PKCβ2 mRNAs in PMC (8 patients)
Protocol: FIGS. 2A-2B show real-time RT-PCR analysis of GABAAβ2 (2A) and PKCβ2 (2B) mRNAs in PMCs from schizophrenic patients treated with an antipsychotic drug combined with the antidepressant agent fluvoxamine. Fluvoxamine (100 mg/day) was added in an open study format to the constant antipsychotic treatment of 8 patients suffering from chronic schizophrenia with persistent negative symptoms. Total RNA, isolated from PMCs of these patients at baseline (day 0, BL) as well as following 1, 3 and 6 weeks (1W, 3W and 6W, respectively) of the combined treatment, was reverse transcribed. cDNA was amplified in real-time PCR using suitable primers for GABAAβ2 and PKCβ2, as described in the Experimental section. The relative expression level of a given mRNA was assessed by normalizing to the reference gene PPIB. For each patient, the expression level of each one of the genes at baseline was arbitrarily set as 1, and the gene expression levels at 3 and 6 weeks were calculated relative to baseline. Lines connecting points indicate samples of the same patient. Dash line indicates average of the samples of different objects. Student's t-test *p<0.05; **p<0.01 for 1, 3 or 6 weeks of fluvoxamine add-on compared with baseline.
as §1, with “Amplified products were visualized on 1.5% agarose gel. The sequences of the primers, the experimental conditions and the melting temperature of the products are described in Table 2 hereinafter.” left out

[3] = system: schizophrenic patients; assay: Simpson-Angus Scale (SAS) for extrapyramidal side effects; settings: for Extra-pyramidal side effects score: one line per patient I-VI
Protocol: Fluvoxamine (100 mg/day) was added in an open study format to the antipsychotic treatment, which remained steady. Clinical state was assessed by psychiatrists using validated rating scales for negative (SANS) and positive (SAPS) symptoms (Silver et al., 2003) prior to fluvoxamine treatment and then weekly until the end of the trial period. Total SANS scores and summary scores for […] blunting, alogia, anhedonia and […] factors were the outcome measures. Extrapyramidal symptoms were assessed with the Simpson-Angus Scale (SAS) for extrapyramidal side effects (Simpson and Angus, 1970). Blood samples were taken at baseline (day 0), before addition of fluvoxamine, after 3 weeks of combined treatment, a time when the initial clinical effect is expected to be seen (Silver et al., 2003), and after 6 weeks of the combined treatment.

[4] = after 3-6 weeks of the combined treatment

COCCCC/C(=N\OCCN)c1ccc(C(F)(F)F)cc1 [fluvoxamine]
CCR7 mRNA expression ([1]; 3 and 6 weeks, among the patients): did not show a consistent trend | IL8Rα mRNA expression ([1]; after 3 and 6 weeks of add-on treatment vs initial level, normalized to PPIB): reduced significantly | RGS7 mRNA expression ([1]; after 6 weeks): significantly reduced | CCR1 mRNA expression ([1]; at both time points (3 and 6 weeks), in 5 out of 6 patients): reduced | average GABAAβ2 expression increase compared with day 0 [2, 4]: 40-50% | average PKCβ2 expression decrease compared with day 0 [2, 4]: ≥ 90% | average PKCβ2 expression decrease compared with day 0 ([2]; after one week of the combined treatment): about 30% | Extra-pyramidal side effects score ([3]; 3 W): 0 (5×) and 6 | Extra-pyramidal side effects score ([3]; 6 W): 0 (5×) and 4 | Extra pyramidal side effects change ([3]; with augmentation treatment, absent in all, except one patient): did not change significantly
